From PMC10244169, “Psychedelics promote plasticity by directly binding to BDNF receptor TrkB” (Nature Neuroscience, 2023)

Columns and labels:
[1] = system: dendritic arbor complexity of neuronal cultures; assay: Dendritogenesis (Sholl analysis) in neuronal cultures (WT and Y433F^+/−); format: cell-based, mouse; details: for Sholl analysis, Mean at distance from soma: fig 6h
Procedure, shortened: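 Some cultures were pretreated 10 min with TrkB.FC (200 ng ml^−1) or M100907 (100 nM), which stayed in the medium alongside cumulative psychedelic doses. Sholl analysis counted dendritic intersections every 5 μm from the soma.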

TrkB = molecular target: T1, TrkB (Rattus norvegicus, UniProt Q63604); assay: biochemical; format: binding
T1 construct: expressed in transfected cells; host or cells: HEK293T
T1 sequence (Q63604 32-821): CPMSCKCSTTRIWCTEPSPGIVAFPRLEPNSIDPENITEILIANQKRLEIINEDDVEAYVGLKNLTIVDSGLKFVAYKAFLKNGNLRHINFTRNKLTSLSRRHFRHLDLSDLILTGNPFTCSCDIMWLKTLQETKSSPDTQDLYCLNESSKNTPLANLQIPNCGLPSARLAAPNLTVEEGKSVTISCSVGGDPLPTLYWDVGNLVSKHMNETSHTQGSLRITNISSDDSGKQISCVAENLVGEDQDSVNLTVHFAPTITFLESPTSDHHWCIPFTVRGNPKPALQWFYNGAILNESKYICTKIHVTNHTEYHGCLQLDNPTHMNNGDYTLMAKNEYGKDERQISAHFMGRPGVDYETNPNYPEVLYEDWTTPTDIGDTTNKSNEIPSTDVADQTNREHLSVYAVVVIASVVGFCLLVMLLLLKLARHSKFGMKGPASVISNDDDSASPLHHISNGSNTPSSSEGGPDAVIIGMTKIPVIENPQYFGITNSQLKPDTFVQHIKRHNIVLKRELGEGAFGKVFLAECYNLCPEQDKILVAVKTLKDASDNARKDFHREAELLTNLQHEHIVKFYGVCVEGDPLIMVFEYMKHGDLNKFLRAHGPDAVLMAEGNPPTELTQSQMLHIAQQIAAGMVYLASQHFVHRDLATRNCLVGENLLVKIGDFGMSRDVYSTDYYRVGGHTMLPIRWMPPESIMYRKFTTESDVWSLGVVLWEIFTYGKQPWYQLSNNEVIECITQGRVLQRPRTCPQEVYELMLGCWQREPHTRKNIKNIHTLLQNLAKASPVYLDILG

[2] = system: spine density of neuronal cultures; assay: Spinogenesis in mature neuronal cultures (WT and Y433F^+/−); format: cell-based, mouse; parameters: 6d: Mean (spinogenesis, spine density) / 6e: Mean (spinogenesis, spine density): unit not given here
Description: Spinogenesis experiments were performed similarly to previous studies[12],[13] with modifications. […] In a separate set of experiments to study the effects of extracellular BDNF and 5-HT2A activation, cultures were also pretreated for 10 min with TrkB.FC (200 ng ml^−1) or M100907 (100 nM), respectively. TrkB.FC and M100907 remained in the medium for the rest of the experiment. Twenty-four hours later, coverslips were fixed with 4% PFA, washed with PBS, incubated with blocking buffer (0.1% Triton X-100, 0.05% Tween-20, 10% normal donkey serum, 1% BSA and 0.1% gelatin in PBS) for 1 h at room temperature and then overnight with rabbit anti-MAP2 (Invitrogen, PA5-17646; 1:100) primary antibody at 4 °C. After washing with PBS, coverslips were incubated with CF568-conjugated donkey anti-rabbit (Biotium, 20098; 1:500) for 1 h at room temperature. Another round of PBS washes was followed by incubation with Alexa Fluor 647-conjugated phalloidin (Invitrogen, A22287; 1:40) overnight at 4 °C. Next, coverslips were briefly washed in phosphate buffer (PB) and mounted on slides with ProLong Glass Antifade Mountant (Invitrogen, P36982). We used a Zeiss LSM 880 confocal microscope with an AiryScan GaAsP detector equipped with a PlanApochromat 63×/1.4 NA objective. We used the BP 495–550 + LP 570 AiryScan filter and Zen Black in super-resolution mode for image acquisition. Pinhole size was adapted accordingly, and frame size was set to optimal. Sensors were set to continuous adjustment across the imaging sessions to ensure optimal sensor alignment and signal detection. Raw data were processed into AiryScan images with the autofilter mode on using Zen Blue. Finally, image analysis was performed in ImageJ by experimenters blinded for treatment and genotype. Spines were quantified in 15-µm-long dendrite sections.

[3] = Y433F+/-:vehicle minus Y433F+/-:treatment

With `CN(C)CCc1c[nH]c2cccc(O)c12` [PSI, psilocin] the “6g: Mean (dendritogenesis, Sholl analysis)” value ([1]; WT neurons, vehicle mean 32.96) was 62.5, the “6g: Mean Diff. (vehicle vs. treatment), Bonferroni's multiple comparisons test” value ([1]; WT:vehicle minus WT:treatment) was -29.54 and the “6g: Mean (dendritogenesis, Sholl analysis)” value ([1]; Y433F+/- neurons, vehicle mean 44.44) was 31.05. For the same compound, the “6g: Mean Diff. (vehicle vs. treatment), Bonferroni's multiple comparisons test” value [1, 3] was 13.39, the dendritic arbor complexity ([1]; cultures from WT mice) was “enhance dendritic arbor complexity” and the dendritic arbor complexity ([1]; cultures from Y433F^+/− mice) was “not Y433F^+/− mice”. The “Sholl analysis, Mean at distance from soma” value (shortened to “Sholl analysis, Mean”) ([1]; distance from soma 25 µm) was 3.05, the “Sholl analysis, Mean” value ([1]; distance from soma 30 µm) was 2.75 and the “Sholl analysis, Mean” value ([1]; distance from soma 35 µm) was 2.15. For the same compound, the “Sholl analysis, Mean” value ([1]; distance from soma 40 µm) was 1.55, the “Sholl analysis, Mean” value ([1]; distance from soma 45 µm) was 1.35 and the “Sholl analysis, Mean” value ([1]; distance from soma 50 µm) was 1.3. For the same compound, the “Sholl analysis, Mean” value ([1]; distance from soma 55 µm) was 0.95, the “Sholl analysis, Mean” value ([1]; distance from soma 60 µm) was 0.8 and the “Sholl analysis, Mean” value ([1]; distance from soma 65 µm) was 0.75. The “Sholl analysis, Mean” value ([1]; distance from soma 70 µm) was 0.7, the “Sholl analysis, Mean” value ([1]; distance from soma 75 µm) was 0.55 and the “Sholl analysis, Mean” value ([1]; distance from soma 80 µm) was 0.45. The “Sholl analysis, Mean” value ([1]; distance from soma 85 µm) was 0.45, the “Sholl analysis, Mean” value ([1]; distance from soma 90 µm) was 0.4 and the “Sholl analysis, Mean” value ([1]; distance from soma 95 µm) was 0.65. The “Sholl analysis, Mean” value ([1]; distance from soma 100 µm) was 0.55, the “6h: Mean (Sholl analysis)” value ([1]; first 6h table (N as WT), distance from soma 10 µm) was 6 and the “6h: Mean (Sholl analysis)” value ([1]; first 6h table (N as WT), distance from soma 15 µm) was 7.15. The “6h: Mean (Sholl analysis)” value ([1]; first 6h table (N as WT), distance from soma 20 µm) was 7.85, the “6h: Mean (Sholl analysis)” value ([1]; first 6h table (N as WT), distance from soma 25 µm) was 6.65 and the “6h: Mean (Sholl analysis)” value ([1]; first 6h table (N as WT), distance from soma 30 µm) was 5.65. For the same compound, the “6h: Mean (Sholl analysis)” value ([1]; first 6h table (N as WT), distance from soma 35 µm) was 4.5, the “6h: Mean (Sholl analysis)” value ([1]; first 6h table (N as WT), distance from soma 40 µm) was 3.6 and the “6h: Mean (Sholl analysis)” value ([1]; first 6h table (N as WT), distance from soma 45 µm) was 2.75. The “6h: Mean (Sholl analysis)” value ([1]; first 6h table (N as WT), distance from soma 50 µm) was 2.6, the “6h: Mean (Sholl analysis)” value ([1]; first 6h table (N as WT), distance from soma 55 µm) was 2.5 and the “6h: Mean (Sholl analysis)” value ([1]; first 6h table (N as WT), distance from soma 60 µm) was 2.35. For the same compound, the “6h: Mean (Sholl analysis)” value ([1]; first 6h table (N as WT), distance from soma 65 µm) was 1.75, the “6h: Mean (Sholl analysis)” value ([1]; first 6h table (N as WT), distance from soma 70 µm) was 1.7 and the “6h: Mean (Sholl analysis)” value ([1]; first 6h table (N as WT), distance from soma 75 µm) was 1.35. The “6h: Mean (Sholl analysis)” value ([1]; first 6h table (N as WT), distance from soma 80 µm) was 1.15, the “6h: Mean (Sholl analysis)” value ([1]; first 6h table (N as WT), distance from soma 85 µm) was 1.1 and the “6h: Mean (Sholl analysis)” value ([1]; first 6h table (N as WT), distance from soma 90 µm) was 1.3. For the same compound, the “6h: Mean (Sholl analysis)” value ([1]; first 6h table (N as WT), distance from soma 95 µm) was 1.05, the “6h: Mean (Sholl analysis)” value ([1]; first 6h table (N as WT), distance from soma 100 µm) was 1.5 and the “6h: Mean (Sholl analysis)” value ([1]; second 6h table (N as Y433F), distance from soma 10 µm) was 4.8. For the same compound, the “6h: Mean (Sholl analysis)” value ([1]; second 6h table (N as Y433F), distance from soma 15 µm) was 4.05, the “6h: Mean (Sholl analysis)” value ([1]; second 6h table (N as Y433F), distance from soma 20 µm) was 3.8 and the Ki (TrkB) was 6.73 ± 3.05 nM. For the same compound, the “Bmax (best-fit, 1b)” value (TrkB; competition with ^3H-LSD) was 100.9, the “h (best-fit, 1b)” value (TrkB; competition with ^3H-LSD) was -0.492 and the “affinity to TrkB relative to other antidepressants (fluoxetine, ketamine)” value (TrkB; higher than other antidepressants) was 1,000 fold. For the same compound, the “6d: Mean (spinogenesis, spine density)” value ([2]; WT neurons, vehicle mean 5.7) was 10.5, the “6d: Mean Diff. (vehicle vs. treatment), Bonferroni's multiple comparisons test” value ([2]; WT:vehicle minus WT:treatment) was -4.8 and the “6d: Mean (spinogenesis, spine density)” value ([2]; Y433F+/- neurons, vehicle mean 6.55) was 7. The “6d: Mean Diff. (vehicle vs. treatment), Bonferroni's multiple comparisons test” value [2, 3] was -0.45 and the spine density ([2]; cultures from WT mice, 24 h, 100 nM) was “increase spine density”.
